Experimental data reported in patent US9957214B2, “Multifunctional radical quenchers” (ARIZONA BOARD OF REGENTS ON BEHALF OF ARIZONA STATE …, priority 2012, dated 2018).

Experiments:
[1] = system: differentiated SH-SY5Y cells; experiment: Neuroprotection against Aβ 1-42 oligomer induced cytotoxicity (WST-1); type: cell-based, human; settings: Aβ 1-42 oligomers 2.5 μM, 48 h
Method: FIG. 8. Effect of nitrogen-containing 1,4-benzoquinone 40 and geldanamycin on Aβ 1-42 induced neurotoxicity in differentiated SH-SY5Y cells.
The cytotoxic effect of Aβ 1-42 oligomers (2.5 μM) on differentiated SH-SY5Y cells was evaluated in presence and absence of the test compounds. Sequential treatment of the human SH-SY5Y neuroblastoma cell line with retinoic acid and brain-derived neurotrophic factor (BDNF) generates nearly pure populations of human neuron-like cells, thus providing a model for the study of neuronal differentiation and neuroprotection as previously described, with some modifications (Encinas et al. (2000) J. Neurochem. 75, 991-1003). […] The plates were incubated at 37° C. in an atmosphere having 95% humidity and 5% CO2 for 48 h and then cell viability was measured using a WST-1 Kit (Roche Diagnostics). […] Color intensity was measured with a 96-well plate at 450 nm using a SpectraMax M5 microplate reader (Molecular Devices, Sunnyvale, Calif.). Results are expressed as percentage of viable cells relative to untreated control after subtracting background. Data are expressed as means±S.E.M. (n=3).
Synthetic human Aβ 1-42 was purchased from AnaSpec (San Jose, Calif.). […] Aβ 1-42 peptide content was determined by the method of bicinchoninic acid assay (micro-BCA kit, Pierce) using BSA as reference.

[2] = system: FRDA lymphocytes; experiment: Preservation of mitochondrial membrane potential (TMRM flow cytometry) in DEM-treated FRDA lymphocytes; type: cell-based
Method: FIG. 3. Effect of nitrogen-containing 1,4-benzoquinone derivatives on mitochondrial membrane potential of cultured FRDA cells. Representative flow cytometric two dimensional color density dot plot analyses of mitochondrial membrane potential Δψm in FRDA lymphocytes stained with TMRM and analyzed using the FL2-H channel as described in Experimental Section. The cells were washed twice in phosphate buffered saline, and suspended in phosphate buffered saline containing 20 mM glucose. The percentage of cells with intact Δψm is indicated in the top right quadrant of captions. In each analysis, 10,000 events were recorded. Data are expressed as means±SEM of three independent experiments run in duplicate.
Mitochondrial membrane potential was measured using two different fluorescent dyes, TMRM and JC-1. Δψm was determined as previously described by staining FRDA lymphocyte cells with TMRM (Molecular Probes, Eugene, Oreg.) and analyzing fluorescence emission by flow cytometry in detection channel 2 (FL2-H) (Khdour et al. (2011) Pharmaceut. Res. 28, 2896-2909). Briefly, FRDA lymphocytes were pre-treated with or without the test compounds for 16 h. The cells were treated with 5 mM DEM for 140 min, collected by centrifugation at 300×g for 3 min and then washed twice with phosphate buffered saline. The cells were resuspended in PBS containing […] and incubated at 37° C. in the dark for 15 min with 250 nM TMRM. Cells were collected by centrifugation at 300×g for 3 min and were then washed with phosphate buffered saline. The samples were analyzed immediately by flow cytometry using a 488 nm excitation laser and the FL2-H channel. The results obtained were verified in three independent experiments. […] In each analysis, 10,000 events were recorded. […] The following day, cells were treated with tested compounds and incubated for an additional 12 h before treatment with 1 mM BSO. Δψm was assessed after 24 h using JC-1 Mitochondrial Membrane Potential Detection Kit (Biotium, Inc) following the manufacturer instruction. Glass cover slips were rinsed with phosphate-buffered saline and mounted onto slides, and images were recorded and analyzed with a Zeiss AxioCam MRm and AxioVision 3.1 software (Carl Zeiss Goettingen, Germany) on a Zeiss Axiovert 200 M inverted microscope, equipped with a 40× oil immersion objective.
The ability of the test compounds to preserve mitochondrial membrane potential under conditions of oxidative stress was studied. […] Changes in mitochondrial membrane potential (Δψm) were measured using two different fluorescent dyes, tetramethylrhodamine methyl ester (TMRM) and 5,5′,6,6′-tetrachloro-1,1′,3,3′-tetraethylbenzimidazolocarbocyanine iodide (JC-1). […] The fluorescence signal of TMRM can be directly co-related to Δψm across the inner mitochondrial membrane. […]

[3] = system: Friedreich's ataxia lymphoblast cell line GM15850; experiment: Cytoprotection (trypan blue exclusion assay) of DEM-treated FRDA lymphocytes; type: cell-based; settings: Homo sapiens, GM15850; 5 μM; DEM alone 18 ± 10% viability; read-out: Cytoprotection (cell viability, % of untreated control)
Method: Cell viability was determined by trypan blue exclusion assay in Friedreich's ataxia lymphoblast cell line GM15850 (Coriell Institute, New Jersey). This technique was used to assess the cytoprotective effects of the tested compounds in cultured cells treated with DEM to induce cell death by GSH depletion. The viability of DEM-treated FRDA cells was determined by their ability to exclude the dye trypan blue. Viable cells exclude trypan blue, whereas non-viable cells take up the dye and stain blue. Briefly, FRDA lymphocytes were grown in RPMI 1640 medium (Gibco) supplemented with 15% fetal calf serum, 2 mM glutamine (HyClone) and 1% penicillin-streptomycin mix (Cellgro). Cells were seeded at a density of 5×10^5 cells/mL and treated with different concentrations of the indicated compounds. Cells were incubated at 37° C. in a humidified atmosphere of 5% CO2 in air for 17 h. After pre-incubation, the cells were treated with 5 mM DEM. Cell viability was determined by staining cells with 0.4% trypan blue using a hemacytometer. At least 500 cells were counted in each experimental group. At the time of assay, <20% of DEM treated cells were viable (trypan blue negative), whereas in non DEM-treated control, >90% cells were viable. Cell viability was expressed as the percentage of control. Data are expressed as means±S.E.M. (n=3).
Cell viability was determined by trypan blue exclusion assay in Friedreich's ataxia lymphoblast cell line GM15850 (Coriell Institute). This technique was used to assess the cytoprotective effects of the compounds in cultured cells treated with diethyl maleate (DEM) to induce cell death by glutathione (GSH) depletion. The viability of DEM-treated FRDA cells was determined by their ability to exclude the dye trypan blue. Viable cells exclude trypan blue, whereas non-viable cells take up the dye and stain blue. […] Benzoquinone analogue 9 afforded greater cyoprotection to FRDA lymphocytes at 5 μM concentration than did the tert-butyl ester 6 (74 vs 50%).

[4] = molecular target: bovine heart mitochondrial complex I (Bos taurus, UniProt P03887+P17694+P42026); experiment: Complex I (NADH-Q1 oxidoreductase) inhibition in submitochondrial particles; type: biochemical; settings: submitochondrial particles, 30° C.
Sequence of bovine heart mitochondrial complex I (P25708 21-464): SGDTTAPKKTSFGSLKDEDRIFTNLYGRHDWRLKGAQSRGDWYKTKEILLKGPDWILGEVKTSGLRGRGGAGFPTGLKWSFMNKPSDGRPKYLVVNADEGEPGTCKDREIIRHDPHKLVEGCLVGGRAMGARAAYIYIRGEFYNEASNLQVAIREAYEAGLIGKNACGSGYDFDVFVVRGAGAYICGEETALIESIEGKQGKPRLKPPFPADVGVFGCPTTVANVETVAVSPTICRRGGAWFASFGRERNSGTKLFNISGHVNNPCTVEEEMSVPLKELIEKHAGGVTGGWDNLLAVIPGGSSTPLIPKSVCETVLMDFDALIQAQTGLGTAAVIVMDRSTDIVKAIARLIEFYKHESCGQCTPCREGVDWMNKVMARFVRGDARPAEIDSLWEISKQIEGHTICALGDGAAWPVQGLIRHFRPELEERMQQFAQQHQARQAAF
Sequence of bovine heart mitochondrial complex I (P42026 38-216): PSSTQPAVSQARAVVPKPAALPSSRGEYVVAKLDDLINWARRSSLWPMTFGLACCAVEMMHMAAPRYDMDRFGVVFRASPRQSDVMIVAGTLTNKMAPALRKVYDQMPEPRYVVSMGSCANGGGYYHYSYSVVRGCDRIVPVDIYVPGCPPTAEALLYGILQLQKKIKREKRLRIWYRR
Sequence of bovine heart mitochondrial complex I (P17694 34-463): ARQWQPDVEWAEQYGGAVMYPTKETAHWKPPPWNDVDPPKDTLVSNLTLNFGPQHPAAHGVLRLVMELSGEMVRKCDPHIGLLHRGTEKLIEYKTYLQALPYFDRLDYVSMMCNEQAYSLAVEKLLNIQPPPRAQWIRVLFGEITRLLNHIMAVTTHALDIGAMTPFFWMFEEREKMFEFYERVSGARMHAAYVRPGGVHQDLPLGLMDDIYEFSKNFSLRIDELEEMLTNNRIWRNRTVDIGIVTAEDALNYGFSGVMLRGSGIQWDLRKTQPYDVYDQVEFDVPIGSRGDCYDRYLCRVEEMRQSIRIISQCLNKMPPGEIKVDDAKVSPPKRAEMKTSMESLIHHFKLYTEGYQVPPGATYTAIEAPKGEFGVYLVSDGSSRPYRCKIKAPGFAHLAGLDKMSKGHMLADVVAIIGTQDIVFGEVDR
Sequence of bovine heart mitochondrial complex I (P15690 24-727, further chain): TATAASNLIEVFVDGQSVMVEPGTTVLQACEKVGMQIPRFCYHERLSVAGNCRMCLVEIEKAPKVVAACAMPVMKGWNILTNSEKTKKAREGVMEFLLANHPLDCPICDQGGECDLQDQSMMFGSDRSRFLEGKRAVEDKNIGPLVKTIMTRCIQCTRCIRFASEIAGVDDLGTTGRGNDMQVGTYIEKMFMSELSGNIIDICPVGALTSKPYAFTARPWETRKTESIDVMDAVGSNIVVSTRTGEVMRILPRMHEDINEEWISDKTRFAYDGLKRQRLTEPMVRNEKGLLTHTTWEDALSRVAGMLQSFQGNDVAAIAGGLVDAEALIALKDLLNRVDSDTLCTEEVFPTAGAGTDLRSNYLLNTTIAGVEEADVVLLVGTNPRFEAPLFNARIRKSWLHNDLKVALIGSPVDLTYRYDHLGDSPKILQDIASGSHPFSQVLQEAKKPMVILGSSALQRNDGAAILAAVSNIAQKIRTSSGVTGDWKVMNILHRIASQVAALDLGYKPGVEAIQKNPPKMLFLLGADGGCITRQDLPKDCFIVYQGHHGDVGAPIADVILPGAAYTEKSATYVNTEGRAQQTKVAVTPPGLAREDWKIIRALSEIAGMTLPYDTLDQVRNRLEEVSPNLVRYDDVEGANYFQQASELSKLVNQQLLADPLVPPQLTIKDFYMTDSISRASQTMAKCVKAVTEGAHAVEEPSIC
Sequence of bovine heart mitochondrial complex I (P03887 whole entry): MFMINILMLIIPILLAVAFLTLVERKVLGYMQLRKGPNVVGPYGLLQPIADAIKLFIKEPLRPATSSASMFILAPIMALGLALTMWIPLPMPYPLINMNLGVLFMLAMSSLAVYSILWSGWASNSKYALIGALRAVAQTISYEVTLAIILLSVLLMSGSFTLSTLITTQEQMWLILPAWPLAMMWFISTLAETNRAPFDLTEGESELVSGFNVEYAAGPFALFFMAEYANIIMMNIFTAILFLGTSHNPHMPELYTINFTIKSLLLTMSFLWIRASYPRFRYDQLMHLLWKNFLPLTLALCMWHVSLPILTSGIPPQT
Sequence of bovine heart mitochondrial complex I (P42028 37-212, further chain): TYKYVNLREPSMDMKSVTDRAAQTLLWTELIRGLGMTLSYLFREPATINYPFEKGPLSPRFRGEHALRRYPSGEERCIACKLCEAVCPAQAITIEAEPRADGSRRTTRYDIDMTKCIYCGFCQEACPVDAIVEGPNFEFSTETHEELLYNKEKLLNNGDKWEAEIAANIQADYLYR

Structure (SMILES): COC1=C2C[C@@H](C)C[C@H](OC)[C@H](O)[C@@H](C)/C=C(\C)[C@H](OC(N)=O)[C@@H](OC)/C=C\C=C(/C)C(=O)NC(=CC1=O)C2=O [geldanamycin, reference compound]
- Effect on Aβ 1-42 induced cytotoxicity (in words) [1]: increased cytotoxicity

Structure (SMILES): CCCCCCCCCCCCCC1=C(OC)C(=O)C=C(NCCCC(=O)OCCCC)C1=O [Compound 15, Butyl 4-(4-methoxy-3,6-dioxo-5-tridecylcyclohexa-1,4-dienylamino)butanoate]
- Preservation of mitochondrial membrane potential Δψm (in words) [2]: prevented the loss of Δψm
- viability at 5 µM [3]: 82 ± 2.9%
- IC50 ([4]; read-out: Complex I inhibition IC50): 98 ± 8 µM
- Emax ([4]; read-out: Complex I inhibition Imax): ≥ 60%
